Laboratory results: PMC9127750, “Structure-based design of CDC42 effector interaction inhibitors for the treatment of cancer” (Cell reports, 2022)
Where “and” joins values, the source holds several entries; their conditions need not be identical. Equal values may be shown once.

Tested on: WM3248 melanoma cells, 486 antibodies
Assay: Reverse phase protein arrays (RPPA);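 for RPPA ACC1.R.C: ratio of treated to vehicle (0 µM) normalized linear protein signal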;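 for RPPA AMPK.a2 pS345.R.V: ratio of treated to vehicle (0 µM) normalized linear protein signal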;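 for RPPA AMPKa pT172.R.C: ratio of treated to vehicle (0 µM) normalized linear protein signal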;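 for RPPA ASNS.R.V: ratio of treated to vehicle (0 µM) normalized linear protein signal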;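 for RPPA AceCS1.R.V: ratio of treated to vehicle (0 µM) normalized linear protein signal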;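 for RPPA Akt1.R.V: ratio of treated to vehicle (0 µM) normalized linear protein signal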;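 for RPPA Atg5.R.C: ratio of treated to vehicle (0 µM) normalized linear protein signal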
Format: cell-based, Human
From the text: Pellets were snap frozen in liquid nitrogen and shipped to MD Anderson Cancer Center core RPPA facility for RPPA analysis (Table S5). Three biological replicates for each sample were generated.
Nomenclatures on the RPPA heatmaps: name_of_antibody.species_of_antibody.status_of_antibody. V - antibody validated; C - validation of antibody in progress; Q - antibody nonspecific; E – under evaluation; antibodies raised in M - mouse, G - goat, R - rabbit, or T - rat.

CN(C)c1cccc(Nc2cc(-c3ccccc3)nc(C3CCNCC3)n2)c1 [ARN22089, N1,N1-dimethyl-N3-(6-phenyl-2-(piperidin-4-yl)pyrimidin-4-yl)benzene-1,3-diamine]
RPPA EGFR_pY1068.R.C (5 uM, single samples): 1.000 and 0.953 and 1.026 | RPPA EGFR_pY1173.R.V (5 uM, single samples): 0.975 and 1.083 and 1.079 | RPPA EMA.M.C (5 uM, single samples): 1.076 and 0.967 and 1.014 | RPPA ENY2.M.C (5 uM, single samples): 0.948 and 0.847 | RPPA ER.a.R.V (5 uM, single samples): 0.800 and 1.157 and 1.137 | RPPA ER.a_pS118.R.V (5 uM, single samples): 0.923 and 1.516 and 1.141 | RPPA ERCC1.R.C (5 uM, single samples): 1.055 and 0.895 and 0.971 | RPPA ERCC5.R.C (5 uM, single samples): 1.027 and 0.974 and 0.973 | RPPA ERRalpha.R.V (5 uM, single samples): 1.078 and 0.970 and 0.952 | RPPA EVI1.R.V (5 uM, single samples): 0.942 and 0.941 | RPPA Elk1_pS383.R.C (5 uM, single samples): 0.946 and 1.013 and 1.129 | RPPA Enolase.1.R.V (5 uM, single samples): 1.024 and 0.893 and 0.818 | RPPA Enolase.2.R.V (5 uM, single samples): 0.995 and 0.946 | RPPA EphA2.R.V (5 uM, single samples): 0.776 and 1.046 | RPPA EphA2_pS897.R.C (5 uM, single samples): 0.644 and 1.190 and 1.055 | RPPA EphA2_pY588.R.C (5 uM, single samples): 0.942 and 0.920 | RPPA Erk5.R.V (5 uM, single samples): 1.097 and 1.135 | RPPA Ets.1.R.V (5 uM, single samples): 1.185 and 0.950 and 0.594 | RPPA FAK.R.C (5 uM, single samples): 0.858 and 1.217 and 0.941 | RPPA FAK_pY397.R.V (5 uM, single samples): 1.026 and 0.959 and 1.059 | RPPA FANCD2.R.V (5 uM, single samples): 0.883 and 1.063 | RPPA FASN.R.V (5 uM, single samples): 1.017 and 0.767 | RPPA FGF.basic.R.C (5 uM, single samples): 0.868 and 1.191 | RPPA FN14.R.C (5 uM, single samples): 0.857 and 1.226 and 1.168 | RPPA FOXM1.R.V (5 uM, single samples): 0.885 | RPPA FOXO3.R.V (5 uM, single samples): 0.861 and 0.945 and 1.100 | RPPA FRS2.alpha_pY196.R.V (5 uM, single samples): 0.930 and 0.961 and 0.957 | RPPA FTO.R.V (5 uM, single samples): 1.124 and 0.945 and 0.752 | RPPA FoxO3a_pS318_S321.R.C (5 uM, single samples): 0.918 and 0.939 | RPPA G6PD.R.V (5 uM, single samples): 0.943 and 0.965 | RPPA GATA3.M.V (5 uM, single samples): 0.797 and 0.715 | RPPA GATA6.R.V (5 uM, single samples): 0.919 and 1.005 | RPPA GCLC.R.C (5 uM, single samples): 1.024 and 1.110 and 0.894 | RPPA GCLM.R.V (5 uM, single samples): 0.926 and 0.954 | RPPA GCN5L2.R.V (5 uM, single samples): 0.871 and 1.148 | RPPA GGPS1.M.V (5 uM, single samples): 0.934 and 0.780 | RPPA GRB2.R.V (5 uM, single samples): 0.928 and 1.049 and 1.170 | RPPA GRB7.R.V (5 uM, single samples): 0.960 and 1.157 and 0.957 | RPPA GSK.3B.R.C (5 uM, single samples): 1.001 and 1.019 | RPPA GSK.3a.b.M.V (5 uM, single samples): 0.936 and 0.817 | RPPA GSK.3a.b_pS21_S9.R.V (5 uM, single samples): 0.866 and 1.380 and 0.704 | RPPA Gab2.R.V (5 uM, single samples): 1.251 and 0.896 and 0.910 | RPPA Gli1.R.C (5 uM, single samples): 1.000 and 0.967 | RPPA Gli3.R.C (5 uM, single samples): 0.979 and 1.003 and 0.745 | RPPA Glucocorticoid.Receptor.R.V (5 uM, single samples): 1.035 and 1.000 and 1.021 | RPPA Glutamate.D1.2.R.V (5 uM, single samples): 0.976 and 0.943 and 0.801 | RPPA Glutaminase.R.C (5 uM, single samples): 0.948 and 1.063 and 0.715 | RPPA Granzyme.B.R.V (5 uM, single samples): 0.964 and 1.146 | RPPA Grp75.R.C (5 uM, single samples): 0.944 and 0.963 | RPPA Gys.R.V (5 uM, single samples): 0.967 and 1.080 | RPPA Gys_pS641.R.V (5 uM, single samples): 0.994 and 1.246 and 0.822 | RPPA H2AX_pS139.R.C (5 uM, single samples): 0.914 and 1.103 | RPPA H2AX_pS140.M.C (5 uM, single samples): 1.104 and 0.895 and 0.770 | RPPA HER2.M.V (5 uM, single samples): 0.948 and 0.899 | RPPA HER2_pY1248.R.V (5 uM, single samples): 0.827 and 1.156 | RPPA HER3.R.V (5 uM, single samples): 0.886 and 0.834 | RPPA HER3_pY1289.R.C (5 uM, single samples): 0.992 and 0.888 | RPPA HES1.R.V (5 uM, single samples): 1.367 and 1.154 | RPPA Heregulin.R.V (5 uM, single samples): 0.832 and 1.116 and 1.160 | RPPA eEF2K.R.V (5 uM, single samples): 0.918 and 0.788 | RPPA eIF4E.R.V (5 uM, single samples): 0.941 and 1.515 and 0.898 | RPPA eIF4E_pS209.R.V (5 uM, single samples): 0.935 and 1.281 and 0.858 | RPPA eIF4G.R.C (5 uM, single samples): 1.030 and 0.956 and 1.155 | RPPA MYH11.R.C Average (10 uM): 1.243 | RPPA Myosin.IIa.R.C Average (10 uM): 0.941 | RPPA Myosin.IIa_pS1943.R.V Average (10 uM): 1.022 | RPPA Myt1.R.C Average (10 uM): 0.989 | RPPA N.Cadherin.R.V Average (10 uM): 1.064 | RPPA N.Ras.M.V Average (10 uM): 0.991 | RPPA NDRG1_pT346.R.V Average (10 uM): 1.015 | RPPA NDUFB4.R.V Average (10 uM): 1.035 | RPPA NRF2.R.C Average (10 uM): 0.996 | RPPA Notch1.R.V Average (10 uM): 1.064 | RPPA Notch1.cleaved.R.V Average (10 uM): 0.926 | RPPA Notch3.R.C Average (10 uM): 1.098 | RPPA Oct.4.R.C Average (10 uM): 1.008 | RPPA P.Cadherin.R.C Average (10 uM): 0.973 | RPPA PAI.1.M.V Average (10 uM): 1.014 | RPPA PAICS.R.C Average (10 uM): 0.920 | RPPA PAK1.R.V Average (10 uM): 0.961 | RPPA PAK4.R.V Average (10 uM): 1.063 | RPPA PAK_pS474_S602_S560.R.V Average (10 uM): 1.085 | RPPA PAK_pT423_T402.R.C Average (10 uM): 0.987 | RPPA PAR.R.C Average (10 uM): 0.480 | RPPA PARG.R.C Average (10 uM): 0.970 | RPPA PARP.R.V Average (10 uM): 1.017 | RPPA PAX6.R.V Average (10 uM): 1.003 | RPPA PCNA.M.C Average (10 uM): 0.987 | RPPA PD.1.R.V Average (10 uM): 1.058 | RPPA PD.L1.R.C Average (10 uM): 0.976 | RPPA PDH.M.V Average (10 uM): 1.031 | RPPA PDHA1.R.V Average (10 uM): 0.986 | RPPA PDHK1.R.C Average (10 uM): 0.952 | RPPA PDK1_pS241.R.V Average (10 uM): 0.942 | RPPA PEA.15.R.V Average (10 uM): 0.922 | RPPA PERK.R.V Average (10 uM): 1.010 | RPPA PGM1.R.V Average (10 uM): 0.998 | RPPA PHLPP.R.V Average (10 uM): 1.083 | RPPA PI3K.p85.R.C Average (10 uM): 1.062 | RPPA PI3K.p110.a.R.C Average (10 uM): 0.904 | RPPA PI3K.p110.b.M.C Average (10 uM): 0.987 | RPPA PKA.a.R.V Average (10 uM): 0.877 | RPPA PKC.a.b.II_pT638_T641.R.V Average (10 uM): 0.910 | RPPA PKC.b.II_pS660.R.V Average (10 uM): 1.018 | RPPA PKCa.R.V Average (10 uM): 0.991 | RPPA PKM2.R.C Average (10 uM): 0.940 | RPPA PLC.gamma1.R.V Average (10 uM): 1.083 | RPPA PLC.gamma1_pS1248.R.V Average (10 uM): 0.999 | RPPA PLK1.R.C Average (10 uM): 0.905 | RPPA PR.R.V Average (10 uM): 1.064 | RPPA PRAS40.M.C Average (10 uM): 1.049 | RPPA PRAS40_pT246.R.V Average (10 uM): 0.957 | RPPA Patched.R.C Average (10 uM): 0.971 | RPPA Paxillin.R.C Average (10 uM): 0.830 | RPPA Pdcd4.R.C Average (10 uM): 0.977 | RPPA Porin.M.V Average (10 uM): 1.020 | RPPA p21.R.C Average (10 uM): 1.010 | RPPA p27.Kip1.R.C Average (10 uM): 1.046 | RPPA p27_pT157.R.C Average (10 uM): 1.014 | RPPA p27_pT198.R.V Average (10 uM): 1.168 | RPPA p38.MAPK.R.V Average (10 uM): 0.975 | RPPA p38.a.M.V Average (10 uM): 1.028 | RPPA p53.R.C Average (10 uM): 0.908 | RPPA p70.S6K1.R.V Average (10 uM): 0.918 | RPPA p70.S6K_pT389.R.V Average (10 uM): 0.996 | RPPA p90RSK_pT573.R.C Average (10 uM): 1.053 | RPPA A.Raf.R.V (10 uM, 10W1): 0.962 | RPPA ACC1.R.C (10 uM, 10W1): 1.063 | RPPA ACC_pS79.R.V (10 uM, 10W1): 0.772 | RPPA ACLY_pS455.R.V (10 uM, 10W1): 1.099 | RPPA ACSL1.R.V (10 uM, 10W1): 0.988 | RPPA ACVRL1.R.C (10 uM, 10W1): 1.018 | RPPA ADAR1.M.V (10 uM, 10W1): 1.194 | RPPA ALKBH5.R.V (10 uM, 10W1): 0.984 | RPPA AMPK.a2_pS345.R.V (10 uM, 10W1): 1.028 | RPPA AMPKa.R.C (10 uM, 10W1): 0.972 | RPPA AMPKa_pT172.R.C (10 uM, 10W1): 0.665 | RPPA AR.R.V (10 uM, 10W1): 0.830 | RPPA ASNS.R.V (10 uM, 10W1): 0.786 | RPPA ATM_pS1981.R.V (10 uM, 10W1): 1.131 | RPPA ATP5A.M.C (10 uM, 10W1): 0.979 | RPPA ATP5H.R.V (10 uM, 10W1): 1.113 | RPPA ATRX.R.C (10 uM, 10W1): 1.033 | RPPA ATR_pS428.R.C (10 uM, 10W1): 0.934 | RPPA AceCS1.R.V (10 uM, 10W1): 0.931 | RPPA Akt1.R.V (10 uM, 10W1): 0.892 | RPPA Akt1_pS473.R.V (10 uM, 10W1): 0.970 | RPPA Akt2.R.V (10 uM, 10W1): 0.959 | RPPA Akt2_pS474.R.C (10 uM, 10W1): 1.062 | RPPA Akt.R.V (10 uM, 10W1): 0.917 | RPPA Akt_pS473.R.V (10 uM, 10W1): 1.128 | RPPA Akt_pT308.R.V (10 uM, 10W1): 0.936 | RPPA Ambra1_pS52.R.C (10 uM, 10W1): 1.051 | RPPA Annexin.I.M.V (10 uM, 10W1): 1.059 | RPPA Annexin.VII.M.V (10 uM, 10W1): 1.077 | RPPA Atg3.R.V (10 uM, 10W1): 0.970 | RPPA Atg4B.R.C (10 uM, 10W1): 0.890 | RPPA Atg5.R.C (10 uM, 10W1): 0.920 | RPPA Atg7.R.V (10 uM, 10W1): 0.855 | RPPA Aurora.A.R.C (10 uM, 10W1): 0.735 | RPPA Aurora.ABC_pT288_pT232_pT198.R.C (10 uM, 10W1): 0.857 | RPPA Aurora.B.R.V (10 uM, 10W1): 1.102 | RPPA Axl.R.V (10 uM, 10W1): 0.724
